The structures appear in SMILES notation.

Common to all, as to assay type: in vivo
The test system of test [1] is small intestine. Put plainly: Motility of the small intestine in the conscious dog. To be noted: for Area under the contraction curve, Postdrug 10 min: 10 min postdrug; for Area under the contraction curve, Postdrug 10 min / Area under the contraction curve, Postdrug 20 min / Area under the contraction curve, Postdrug 30 min / Area under the contraction curve, Postdrug 40 min / Area under the contraction curve, Postdrug 50 min / Area under the contraction curve, Postdrug 60 min / Area under the contraction curve, Predrug -20 - 0: phase I and II; for Area under the contraction curve, Postdrug 20 min: 20 min postdrug; for Area under the contraction curve, Postdrug 30 min: 30 min postdrug; for Area under the contraction curve, Postdrug 40 min: 40 min postdrug; for Area under the contraction curve, Postdrug 50 min: 50 min postdrug; for Area under the contraction curve, Postdrug 60 min: 60 min postdrug; for Inhibition Maximal / Inhibition Mean / ED50: phase I+II activity; for Area under the contraction curve, Predrug -20 - 0: predrug baseline -20 - 0 min; for Duration of action: when postdrug values reached 90 % or more of predrug values; for ED50: Canis lupus familiaris, iv, conscious dog, read-out: intravenous IC₅₀-values determined from maximal inhibition. An excerpt: Male dogs (THG Tierhandelsgesellschaft Rodenbach, Hoe:BEAK (Beagle)) weighing 15 - 20 kg were used in all experiments. At least 4 weeks prior to the experiment the dogs had been equipped with miniaturized strain gage force transducers (T1-T3) (2x4 mm), sutured onto the gut at the locations mentioned below. The cables of the transducers were embedded into a cannula which carried the plug for external electric connection. This stainless steel cannula was implanted into the abdominal wall, close below the costal arch. Each transducer was connected to a measuring bridge. The signals were on line stored using a HP 9835 A computer, allowing later analysis of the data. • T1 : Proximal jejunum • T2 : Distal jejunum • T3 : Ileum
(§1) 18 hours prior to the experiment food was withdrawn from the animals, water ad libidum. All experiments started between 08:00 and 09:00 am.
The following motility parameters were determined: The integral under the […] at 10 min intervals (mNx10min) as an index of phase I + II activity. The duration of drug action (min.) The duration of the interdigestive migrating complex (IMC) (min) as a measure of phase III activity.
Test Compound II was given at doses of 0.2 and 0.5 mg/kg i.v. or 5 mg/kg i.g., dissolved in saline, in a volume of 1 ml/kg (i.v.) or 2 ml/kg (i.g.), n = 3 - 6. Control n = 26.
Buscopan was given at doses of 0.3 and 1 mg/kg i.v., dissolved in saline, in a volume of 1 ml/kg, n = 4 - 6. Pitofenone was given at doses of 1 mg/kg i.v., dissolved in saline, in a volume of 1 ml/kg, n = 8.
ID₅₀-values were determined graphically.

For the next test, the system named is large Bowel. Put plainly: Motility of the large bowel (colonic motor complex) in conscious dogs.
Description: Male dogs (THG Tierhandelsgesellschaft Rodenbach, Hoe:BEAK (Beagle)) weighing 15 - 20 kg were used in all experiments.
At least 4 weeks prior the experiment the dogs had been equipped with miniaturised strain gage force transducers (T1-T2) (2x4mm), sutured onto the gut at the locations mentioned below. The cables of the transducers were embedded into a cannula which carried the plug for external electric connection. This stainless steel cannula was implanted into the abdominal wall, close below the costal arch. Each transducer was connected to a measuring bridge. The signals were on line stored using a HP 9835 A computer, allowing later analysis of the data. • T1 : Colon ascendens 10 cm aborafrom the ileoceval valve (ICV) • T2 : Colon transversum 25 cm aborad from the ICV
as §1
The following parameters were determined: The duration of the cycle (min) The duration of the colonic motor complex (CMC) (min) The maximal height of the concentrations (AU: arbitrary units)
Data from the two recording sites (T1-T2) were pooled. […]
For detection of significant differences (p < 0.05) the unpaired t-test was used. Only significant differences were indicated by *.

Test [2] deals with small intestine. Put plainly: Antispasmodic activity in anaesthetized dog (carbachol or acetylcholine induced intestinal contractions). The following applies: anaesthetised dog. As for the experimental part:
Male mongrel dogs of weight range 10 to 15 kg were anaesthetised with pentobarbitone sodium (35 mg/ kg,i.v.). Slow i.v. infusion of pentobarbitone (5 mg/kg/hour) was given for maintenance anaesthesia. The endotracheal tube was inserted to facilitate spontaneous breathing. Both femoral artery and vein were cannulated respectively for recording blood pressure and administering drugs. After laparotomy, a small portion of small intestine distal to duodenum was isolated and saline filled balloon inserted and the opening was sutured. A fine polyethylene cannula was then inserted into the mesenteric artery which supplies to the area of intestine containing balloon for injection of carbachol or acetylcholine. A Statham pressure transducer was then attached to balloon cannula for recording both circular and longitudinal muscle contractions. All the parameters were recorded on 4 channel Nihon-Kohden recorder. The intestinal contractions were recorded after administering a standard dose of carbachol or acetylcholine (0.5 to 3 µg). Test compounds I and II were given at different doses 3,10 and 20 mg/kg intra-duodenally and spasmolytic activity was assessed at various time intervals. Anti-spasmodic activity was assessed by calculating percent reduction in agonist induced contractions and also noting onset and duration of activity. The test compounds were dissolved in distilled water (1% soln.). Table 3 Test compounds I and II were given at different doses (10, 30, 100, 300 and 1000 µg/kg) intravenously and spasmolytic activity was assessed at different time intervals. Anti-spasmodic activity was assessed by calculating percent reduction in agonist induced contractions. The ID₅₀ value was calculated from the dose response curve.

The test system of test [3] is small intestine. The experiment in a line: Gastrointestinal propulsion (charcoal transport) in mice. As for the experimental part: Ref.: J.M.A. Zwagemakers and V. Claassen, Arzneim-Forsch/-Drug Res. 30 (II) Nr.9, p.1517 (1980).
The test compounds I and II were given orally by gavage in a range of 10 to 100 mg/kg doses 30 min before charcoal suspension (0.2 ml/animal, 10% charcoal in 5% gum acacia) in 18 hrs fasted mice (male or female, weight range 18 to 25 g). 30 min after administration of charcoal animals were killed and the extent of charcoal propulsion in the small intestine was measured. The inhibitory activity of test compound on charcoal transport was assessed as percent inhibition compared to length of intestine. For control group 10 ml/kg of saline was given.

As to `CCCC[N+]1(C)[C@@H]2C[C@@H](OC(=O)[C@H](CO)c3ccccc3)C[C@H]1[C@@H]1O[C@@H]12` (stereo partly shown) [Buscopan], in the test on small intestine [1] (0.3 mg/kg i.v.), the “Area under the contraction curve, Postdrug 10 min” value (“Area … Postdrug 10 min” for short) was 1.78 mN x 10 min; the “Area under the contraction curve, Postdrug 20 min” value (“Area … Postdrug 20 min” for short) amounted to 1.74 mN x 10 min; the “Area under the contraction curve, Postdrug 30 min” value (“Area … Postdrug 30 min” for short) came out at 2.17 mN x 10 min; the “Area under the contraction curve, Postdrug 40 min” value (“Area … Postdrug 40 min” for short) turned out to be 2.15 mN x 10 min. Besides, in the test on small intestine [1] (0.3 mg/kg i.v.), the “Area under the contraction curve, Postdrug 50 min” value (“Area … Postdrug 50 min” for short) was 1.80 mN x 10 min; the “Area under the contraction curve, Postdrug 60 min” value (“Area … Postdrug 60 min” for short) turned out to be 1.60 mN x 10 min; the “Inhibition Maximal” value worked out at 29%; the “Inhibition Mean” value is listed as 23 ± 6%. Also, in the test on small intestine [1] (0.3 mg/kg i.v.), the “Area under the contraction curve, Predrug -20 - 0” value (“Area … - 0” for short) turned out to be 2.09 mN x 10 min and the Duration of action is 20 min. In the test with small intestine [1] (1 mg/kg i.v.), the “Area … Postdrug 10 min” value is given as 0.85 mN x 10 min; the “Area … Postdrug 20 min” value worked out at 0.86 mN x 10 min; the “Area … Postdrug 30 min” value was 1.23 mN x 10 min; the “Area … Postdrug 40 min” value turned out to be 2.03 mN x 10 min. For the same compound, in the test on small intestine [1] (1 mg/kg i.v.), the “Area … Postdrug 50 min” value came out at 2.09 mN x 10 min; the “Area … Postdrug 60 min” value came to 1.99 mN x 10 min; the “Inhibition Maximal” value was 58%; the “Inhibition Mean” value came to 52 ± 6%. In the test with small intestine [1] (1 mg/kg i.v.), the “Area … - 0” value is given as 2.03 mN x 10 min and the Duration of action was 30 min. Besides, the ED50 with small intestine [1] came out at 0.6 mg/kg. Besides, in the test on large Bowel (3 mg/kg intragastrically), the “Duration CMC” value came to 6 ± 4 min, the “Duration Cycle” value amounted to 35 ± 19 min and the “Max.heigth of CMC” value worked out at 35±17 AU. For the same compound, in the test on large Bowel (10 mg/kg intragastrically), the “Duration CMC” value was 5 ± 1 min, the “Duration Cycle” value is 32 ± 5 min and the “Max.heigth of CMC” value was found to be 35±10 AU. Further, the “effect on colonic motility” value with large Bowel (3 and 10 mg/kg i.g.) is “no effect”.

Consider `COC(=O)c1ccccc1C(=O)c1ccc(OCCN2CCCCC2)cc1.Cl` [Test Compound I, Methyl-2-[4-(2-piperidino-ethoxy)-benzoyl]-benzoate hydrochloride], for which, in the test on small intestine [2] (20 mg/kg intra-duodenal), the Duration was 40 min, the On-set amounted to 20 min and the Percent Inhibition stood at 63%. Moreover, the ED50 in the test on small intestine [2] (Canis lupus familiaris, iv, read-out: ID₅₀) is 0.14 mg/kg. This compound also registered a Duration of action in the test on small intestine [2] (intravenous administration) of 10 to 30 min. The “Percent Inhibition” value with small intestine [3] (60 mg/kg p.o.) was determined as 24.0 ± 3.0%. Also, in the test on small intestine [3] (100 mg/kg p.o.), the “Percent Inhibition” value came out at 30.0 ± 4.3%. In the test with small intestine [1] (1 mg/kg i.v.), the “Area … Postdrug 10 min” value was found to be 1.58 mN x 10 min; the “Area … Postdrug 20 min” value is given as 2.01 mN x 10 min; the “Area … Postdrug 30 min” value is recorded as 2.59 mN x 10 min; the “Area … Postdrug 40 min” value came out at 2.29 mN x 10 min. In the test with small intestine [1] (1 mg/kg i.v.), the “Area … Postdrug 50 min” value came to 3.16 mN x 10 min; the “Area … Postdrug 60 min” value turned out to be 3.64 mN x 10 min; the “Inhibition Maximal” value worked out at 47%; the “Inhibition Mean” value is 29 ± 7%. In addition, in the test on small intestine [1] (1 mg/kg i.v.), the “Area … - 0” value is recorded as 2.96 mN x 10 min and the Duration of action is given as 40 min. Besides, the ED50 with small intestine [1] is 1 mg/kg.

Values taken from patent publication EP0364941A1, “Branched-chain alkyl esters of 2-(4-(2-piperidino ethoxy)benzoyl)benzoic acid, processes for their preparation and their use as spasmolytic agents” (HOECHST AKTIENGESELLSCHAFT, priority 1988, dated 1990).
